Test results published in patent US20090170803A1, “[…] OF […]” (priority 2002, published 2009).
“Also recorded” adds a separate entry of the source.

Assays:
[1] = test system: human PMNL; test: Preliminary in vitro studies: effects of A2AAR agonists on phagocytic cells (human PMNL); type: cell-based
[2] = test system: human monocytes; test: Inhibition of LPS-stimulated human monocyte TNF production; type: cell-based
[3] = test system: C57BL/6 mice; test: Murine model of endotoxin-induced septic shock (E. coli 026:B6 LPS), mortality; type: in vivo; parameters: protection of mice from E. Coli 026:B6 LPS-induced endotoxemia, dose response (FIG. 1): dose or concentration left out as unconfirmed
[4] = test system: A2A-KO mice; test: Murine septic shock model in A2A-KO mice; type: in vivo; settings: 5 μg/kg, four doses at six hour intervals beginning 12 hours after LPS 12.5 mg/kg
[5] = test system: E. Coli; test: Mice injected with live E. Coli and treated with ceftriaxone, survival; type: in vivo; settings: 20 million E. Coli IP at time 0; ceftriaxone once at time 0; 50 μg/kg ATL146e 8 times at 6 hour intervals
[6] = test system: IL-6; parameters: species or system C57BL/6 mice; settings: mouse, in vivo, ip
[7] = test system: RANTES; parameters: species or system C57BL/6 mice; settings: mouse, in vivo
[8] = test system: neutrophils in kidneys; parameters: species or system C57BL/6 mice; settings: mouse, in vivo, ip

`CCNC(=O)[C@H]1O[C@@H](n2cnc3c(N)nc(C#CCC4CCC(C(=O)OC)CC4)nc32)C(O)C1O` (stereo in doubt) [ATL146e, 4-{3-[6-Amino-9-(5-ethylcarbamoyl-3,4-dihydroxy-tetrahydro-furan-2-yl)-9H-purin-2-yl]-prop-2-ynyl}cyclohexanecarboxylic acid methyl ester] was tested, and the “effects on phagocytic cells in vitro and in animal models of acute inflammation” value [1] was “potent agonists and provide anti-inflammatory responses”, the “inhibition of LPS-stimulated human monocyte TNF production, potency comparison” value [2] was “more potent than CGS21680” and the “protection from death (FIG. 2)” value ([3]; 5 μg/kg i.p. at 6-hour intervals for 24 hours beginning simultaneously with LPS 12.5 mg/kg, p=0.0002) was “protection from death”. For the same compound, the “protection from death after a delay in the onset of therapy (FIG. 3)” value ([3]; 5 μg/kg i.p. at six hour intervals, four doses, delay of 24 hours following LPS challenge (12.5 mg/kg)) was “protection from death”, the “protection of mice from E. Coli 026:B6 LPS-induced endotoxemia, dose response (FIG. 1)” value ([3]; IP one hour prior to LPS and at 6 hour intervals, 8 doses/48 hours) was “dose dependent response” and the “protection at the highest dosages” value ([3]; highest dosages, LPS 12.5 mg/kg) was “complete protection”. The “survival at 4 days” value ([3]; highest doses, vehicle mortality 75%) was 100%, the “protective effect in A2A-KO mice relative to wild type” value [4] was “less protection; also recorded: completely lost” and the “survival of mice injected with live E. Coli and treated with ceftriaxone, compared to antibiotic alone (FIG. 6)” value [5] was “increases survival”. The “renal IL-6 levels, relative to those from mice exposed to LPS/Stx2 (FIG. 7)” value [6] was “approximately 16%” and the “chemokine Renal RANTES in kidney samples (FIG. 8)” value [7] was “reduction”.
With `CCNC(=O)[C@H]1O[C@@H](n2cnc3c(N)nc(C#CCC4CCC(COC(C)=O)CC4)nc32)C(O)C1O` (stereo in doubt) [ATL193, Acetic acid 4-{3-[6-amino-9-(5-ethylcarbamoyl-3,4-dihydroxytetrahydrofuran-2-yl)-9H-purin-2-yl]-prop-2-ynyl}-cyclohexylmethyl Ester] the “effects on phagocytic cells in vitro and in animal models of acute inflammation” value [1] was “potent agonists and provide anti-inflammatory responses”.
In the case of `CCNC(=O)[C@H]1O[C@@H](n2cnc3c(N)nc(C#C[C@]4(O)CCC[C@@H](C)C4)nc32)C(O)C1O` (stereo in doubt) [ATL-203, 5-[6-Amino-2-(1-hydroxy-3-methylcyclohexylethynyl)purin-9-yl]-3,4-dihydroxytetrahydrofuran-2-carboxylic acid ethylamide], the “renal IL-6 levels, relative to those from mice exposed to LPS/Stx2 (FIG. 7)” value [6] is reported as “approximately 16%”, the “chemokine Renal RANTES in kidney samples (FIG. 8)” value [7] is reported as “reduction” and the “neutrophil positive glomeruli, relative to the Stx2 positive samples (FIG. 9)” value [8] is reported as 40%.
`Nc1nc(NCCc2ccc(O)cc2)nc2nc(-c3ccco3)nn12` [ZM241385, reference compound] was tested, and the “block by A2AAR antagonist of the agonist effect on TNF-stimulated superoxide release” value ([1]; adherent PMNLs, with A2AAR agonists) was “completely blocked”, the “reversal of the inhibition of monocyte TNF production by A2AAR antagonist” value ([2]; with ATL146e) was “reversed” and the “protective efficacy of ATL146e when ZM is co-administered (FIG. 4)” value ([3]; ZM in equimolar concentrations (3 μg/kg) with ATL146e, six hour intervals for 24 hours beginning 12 hours after LPS) was “nearly eliminated”. For the same compound, the “protection from death by antagonist alone (FIG. 4)” value ([3]; six hour intervals for 24 hours beginning 12 hours after LPS challenge) was “does not protect”.
In the case of Rolipram [reference compound], the “accentuation of the A2AAR agonist effects on activation of PMNLs” value ([1]; with A2AAR agonists) is reported as “synergistically accentuates”.
